According to patent US6447748B1, “Benzamide compounds for cancer imaging and therapy” (Research Corporation Technologies, Inc., priority 1993, dated 2002):
“And” between values parts separate entries of the source, which are not always exact repeats. Equal values may be shown once. Read-outs that look alike come from different tables or passages of the source.

How the values were obtained:
[1] = Biodistribution of 2-[125I]BP and 3-[125I]BP in Sprague Dawley rats; assay type: in vivo; settings: for Biodistribution Blood / Biodistribution Brain / Biodistribution Heart / Biodistribution Kidney / Biodistribution Liver / Biodistribution Lung / Biodistribution Muscle / Biodistribution Spleen / Biodistribution Thyroid: average of four rats
Protocol: A similar procedure was performed with 2-[^125I]BP and 3-[^125I]BP but blood samples were only collected at 1, 6 and 24 hours.

[2] = for Biodistribution Blood / Biodistribution Bone / Biodistribution Brain / Biodistribution Gonads / Biodistribution Heart / Biodistribution Kidney / Biodistribution Liver / Biodistribution Lunq / Biodistribution Muscle / Biodistribution Spleen / Biodistribution Thyroid: Wistar male rats, average of four rats
Protocol: Male Wistar rats (200-230g), while under anesthesia, were injected intravenously with 0.1 ml of a saline solution containing 20% ethanol solution of 4-[^125I]BP (4-5 μCi). At 1, 4, 6 and 24 hr. after injection, blood samples were collected by cardiac puncture and the […] were sacrificed immediately thereafter by cardiectomy while under anesthesia. The organs of interest were subsequently excised, blotted with tissue paper, weighed, and the radioactivity was counted using a Packard automatic counter (autogamma 5650). The % injected dose/g (% ID/g) values were determined by comparison of tissue radioactivities with suitably diluted aliquots of the injected 4-[^125I]BP dose divided by the weight of the organ.

## O=C(NC1CCN(Cc2ccccc2)CC1)c1ccccc1[125I] [2-[^125I]BP, ^125I-(N-benzylpiperidin-4-yl)-2-iodobenzamide]
[1]
  clearance: fast clearance from the blood and normal organs
[1]; 1 hr.
  Biodistribution Blood: 2.06 ± 0.42 % ID/whole organ
  Biodistribution Brain: 0.48 ± 0.12 % ID/whole organ
  Biodistribution Heart: 0.17 ± 0.03 % ID/whole organ
  Biodistribution Kidney: 1.68 ± 0.08 % ID/whole organ
  Biodistribution Liver: 22.36 ± 1.29 % ID/whole organ
  Biodistribution Lung: 1.06 ± 0.21 % ID/whole organ
  Biodistribution Muscle: 16.15 ± 2.13 % ID/whole organ
  Biodistribution Spleen: 0.32 ± 0.07 % ID/whole organ
  Biodistribution Thyroid: 0.14 ± 0.04 % ID/whole organ
[1]; 6 hr.
  Biodistribution Blood: 1.30 ± 0.12 % ID/whole organ
  Biodistribution Brain: 0.05 ± 0.01 % ID/whole organ
  Biodistribution Heart: 0.05 ± 0.00 % ID/whole organ
  Biodistribution Kidney: 0.39 ± 0.06 % ID/whole organ
  Biodistribution Liver: 6.07 ± 0.18 % ID/whole organ
  Biodistribution Lung: 0.21 ± 0.02 % ID/whole organ
  Biodistribution Muscle: 6.75 ± 0.32 % ID/whole organ
  Biodistribution Spleen: 0.12 ± 0.01 % ID/whole organ
  Biodistribution Thyroid: 1.91 ± 0.23 % ID/whole organ
[1]; 24 hr.
  Biodistribution Blood: 0.50 ± 0.05 % ID/whole organ
  Biodistribution Brain: 0.01 ± 0.00 % ID/whole organ
  Biodistribution Heart: 0.01 ± 0.00 % ID/whole organ
  Biodistribution Kidney: 0.05 ± 0.01 % ID/whole organ
  Biodistribution Liver: 0.59 ± 0.02 % ID/whole organ
  Biodistribution Lung: 0.04 ± 0.00 % ID/whole organ
  Biodistribution Muscle: 1.95 ± 0.11 % ID/whole organ
  Biodistribution Spleen: 0.02 ± 0.00 % ID/whole organ
  Biodistribution Thyroid: 2.11 ± 0.35 % ID/whole organ

## O=C(NC1CCN(Cc2ccccc2)CC1)c1ccc([125I])cc1 [4-[^125I]BP, ^125I-(N-Benzylpiperidin-4-yl)-4-iodobenzamide]
[2]; 1 hr.
  Biodistribution Blood: 0.04 ± 0.00 % ID/g
  Biodistribution Bone: 0.24 ± 0.01 % ID/g
  Biodistribution Brain: 1.24 ± 0.13 % ID/g
  Biodistribution Gonads: 0.39 ± 0.03 % ID/g
  Biodistribution Heart: 0.75 ± 0.05 % ID/g
  Biodistribution Kidney: 2.10 ± 0.15 % ID/g
  Biodistribution Liver: 4.77 ± 0.13 % ID/g
  Biodistribution Lunq: 5.05 ± 0.26 % ID/g
  Biodistribution Muscle: 0.24 ± 0.02 % ID/g
  Biodistribution Spleen: 1.60 ± 0.10 % ID/g
  Biodistribution Thyroid: 0.07 ± 0.01 % ID/g
[2]; 4 hr.
  Biodistribution Blood: 0.02 ± 0.00 % ID/g
  Biodistribution Bone: 0.24 ± 0.05 % ID/g
  Biodistribution Brain: 1.29 ± 0.05 % ID/g
  Biodistribution Gonads: 0.30 ± 0.02 % ID/g
  Biodistribution Heart: 0.74 ± 0.04 % ID/g
  Biodistribution Kidney: 2.05 ± 0.02 % ID/g
  Biodistribution Liver: 7.76 ± 0.36 % ID/g
  Biodistribution Lunq: 5.22 ± 0.78 % ID/g
  Biodistribution Muscle: 0.20 ± 0.02 % ID/g
  Biodistribution Spleen: 1.51 ± 0.19 % ID/g
  Biodistribution Thyroid: 0.12 ± 0.00 % ID/g
[2]; 6 hr.
  Biodistribution Blood: 0.04 ± 0.00 % ID/g
  Biodistribution Bone: 0.44 ± 0.03 % ID/g
  Biodistribution Brain: 1.23 ± 0.08 % ID/g
  Biodistribution Gonads: 0.34 ± 0.01 % ID/g
  Biodistribution Heart: 0.75 ± 0.02 % ID/g
  Biodistribution Kidney: 2.10 ± 0.08 % ID/g
  Biodistribution Liver: 7.20 ± 0.40 % ID/g
  Biodistribution Lunq: 4.85 ± 0.17 % ID/g
  Biodistribution Muscle: 0.12 ± 0.02 % ID/g
  Biodistribution Spleen: 1.57 ± 0.12 % ID/g
  Biodistribution Thyroid: 0.23 ± 0.05 % ID/g
[2]; 24 hr.
  Biodistribution Blood: 0.02 ± 0.00 % ID/g
  Biodistribution Bone: 0.47 ± 0.07 % ID/g
  Biodistribution Brain: 1.24 ± 0.06 % ID/g
  Biodistribution Gonads: 0.34 ± 0.01 % ID/g
  Biodistribution Heart: 0.65 ± 0.03 % ID/g
  Biodistribution Kidney: 1.54 ± 0.05 % ID/g
  Biodistribution Liver: 5.37 ± 0.53 % ID/g
  Biodistribution Lunq: 3.70 ± 0.38 % ID/g
  Biodistribution Muscle: 0.12 ± 0.01 % ID/g
  Biodistribution Spleen: 1.47 ± 0.28 % ID/g
  Biodistribution Thyroid: 0.29 ± 0.04 % ID/g
[2]; Wistar rats
  clearance from the blood pool: cleared quickly
[2]; Wistar rats, retained in the brain after 24 hours
  crossing of the blood brain barrier: crossed the blood brain barrier
[2]; rat, in vivo
  in vivo dehalogenation (thyroid activity after 24 hours): no in vivo dehalogenation

## O=C(NC1CCN(Cc2ccccc2)CC1)c1cccc([125I])c1 [3-[^125I]BP, ^125I-(N-Benzylpiperidin-4-yl)-3-iodobenzamide]
[1]
  clearance: fast clearance from the blood
[1]; 1 hr.
  Biodistribution Blood: 0.75 % ID/whole organ and 0.75 ± 0.05 % ID/whole organ
  Biodistribution Brain: 0.61 ± 0.04 % ID/whole organ
  Biodistribution Heart: 0.15 ± 0.01 % ID/whole organ
  Biodistribution Kidney: 3.49 ± 0.23 % ID/whole organ
  Biodistribution Liver: 13.35 ± 0.62 % ID/whole organ
  Biodistribution Lung: 0.82 ± 0.07 % ID/whole organ
  Biodistribution Muscle: 9.36 ± 0.58 % ID/whole organ
  Biodistribution Spleen: 0.47 ± 0.02 % ID/whole organ
  Biodistribution Thyroid: 0.13 ± 0.02 % ID/whole organ
[1]; 6 hr.
  Biodistribution Blood: 0.55 ± 0.13 % ID/whole organ
  Biodistribution Brain: 0.53 ± 0.26 % ID/whole organ
  Biodistribution Heart: 0.07 ± 0.01 % ID/whole organ
  Biodistribution Kidney: 2.25 ± 0.16 % ID/whole organ
  Biodistribution Liver: 9.06 ± 0.71 % ID/whole organ
  Biodistribution Lung: 0.43 ± 0.05 % ID/whole organ
  Biodistribution Muscle: 1.23 ± 0.49 % ID/whole organ
  Biodistribution Spleen: 0.37 ± 0.05 % ID/whole organ
  Biodistribution Thyroid: 0.53 ± 0.26 % ID/whole organ
[1]; 24 hr.
  Biodistribution Blood: 0.52 ± 0.05 % ID/whole organ
  Biodistribution Brain: 0.81 ± 0.07 % ID/whole organ
  Biodistribution Heart: 0.15 ± 0.01 % ID/whole organ
  Biodistribution Kidney: 1.75 ± 0.13 % ID/whole organ
  Biodistribution Liver: 6.65 ± 1.63 % ID/whole organ
  Biodistribution Lung: 1.05 ± 0.04 % ID/whole organ
  Biodistribution Muscle: 03.7 ± 0.44 % ID/whole organ
  Biodistribution Spleen: 0.65 ± 0.08 % ID/whole organ
  Biodistribution Thyroid: 3.43 ± 0.21 % ID/whole organ
